According to patent US11464770B2, “Anticancer pharmaceutical composition” (NATIONAL CANCER CENTER, priority 2016, dated 2022):
Like-named read-outs stand apart in the source and are kept apart here. Each block holds one compound with its values, some of them ahead of it.

What was measured:
[1] = test system: bladder cancer cell lines; assay: Cell based assay, cell viability (CellTiter-Glo), bladder cancer cell lines
Protocol: (§1) Commercially available bladder cancer, prostate cancer, lung cancer, breast cancer, blood cancer, pancreatic cancer, colorectal cancer, brain cancer, neuroblastoma, melanoma, liver cancer, cervical carcinoma, ovarian cancer, renal cancer, and papilloma cell lines were each treated with trypsin-EDTA and cultured, followed by being seeded in each well of a 96 well plate. After 24 hours of treatment at constant temperature, the respective cells were treated with the candidate compound so that a final concentration became 0 to 2 μM. The treated cells were additionally cultured for 72 hours, and cell viability was measured by using an ATP detection method (CellTiter-Glo® Luminescent Cell Viability Assay, Promega).

liver cancer cell lines = assay: Cell based assay, cell viability (CellTiter-Glo), liver cancer cell lines; details: Homo sapiens, SK-HEP1; SK-HEP-1 cell line
Protocol: as §1

[2] = 253J cells, 72 hours treatment, 0 to 2 μM, CellTiter-Glo, read-out: IC50, bladder cancer cell line 253J
[3] = 5637 cells, 72 hours treatment, 0 to 2 μM, CellTiter-Glo, read-out: IC50, bladder cancer cell line 5637
[4] = Homo sapiens, T-24, T24 cells, 72 hours treatment, 0 to 2 μM, CellTiter-Glo, read-out: IC50, bladder cancer cell line T24
[5] = Homo sapiens, J82 cells, 72 hours treatment, 0 to 2 μM, CellTiter-Glo, read-out: IC50, bladder cancer cell line J82
[6] = Homo sapiens, UMUC3, UM-UC-3 cells, 72 hours treatment, 0 to 2 μM, CellTiter-Glo, read-out: IC50, bladder cancer cell line UM-UC-3
[7] = Homo sapiens, KU-19-19 cells, 72 hours treatment, 0 to 2 μM, CellTiter-Glo, read-out: IC50, bladder cancer cell line KU-19-19
[8] = MBT-2 cells, 72 hours treatment, 0 to 2 μM, CellTiter-Glo, read-out: IC50, bladder cancer cell line MBT-2

SMILES: Cc1cc(C[S+]([O-])c2[nH]c3c(Cl)ccc(Cl)c3c(=O)c2C(=O)c2ccccc2)no1 (centres unmarked) [Compound 88, 3-benzoyl-5,8-dichloro-2-(((5-methylisoxazol-3-yl)methyl)sulfinyl)quinolin-4(1H)-one]
IC50 [1, 2]: > 2000 nM
IC50 [1, 3]: > 2000 nM
IC50 [1, 4]: > 2000 nM
IC50 [1, 5]: > 2000 nM
IC50 (liver cancer cell lines): > 2000 nM

SMILES: CC(=O)c1c([S+]([O-])CN2C(=O)c3ccccc3C2=O)[nH]c2c(Cl)ccc(Cl)c2c1=O (centres unmarked) [Compound 90, 2-(((3-acetyl-5,8-dichloro-4-oxo-1,4-dihydroquinolin-2-yl)sulfinyl)methyl)isoindoline-1,3-dione]
IC50 [1, 2]: > 2000 nM
IC50 [1, 3]: > 2000 nM
IC50 [1, 4]: > 2000 nM
IC50 [1, 6]: > 2000 nM
IC50 [1, 5]: > 2000 nM
IC50 [1, 7]: > 2000 nM
IC50 [1, 8]: > 2000 nM
IC50 (liver cancer cell lines): > 2000 nM

SMILES: COc1cccc2[nH]c(SCc3ccc(S(F)(F)(F)(F)F)cc3)c(C(C)=O)c(=O)c12 [Compound 92, 3-acetyl-5-methoxy-2-((4-(pentafluoro--sulfanyl)benzyl)thio)quinolin-4(1H)-one]
IC50 [1, 2]: > 2000 nM
IC50 [1, 3]: > 2000 nM
IC50 [1, 4]: > 2000 nM
IC50 [1, 6]: > 2000 nM
IC50 [1, 5]: > 2000 nM
IC50 [1, 7]: > 2000 nM
IC50 [1, 8]: > 2000 nM
IC50 (liver cancer cell lines): > 2000 nM

SMILES: COc1cccc2[nH]c([S+]([O-])Cc3ccc(S(F)(F)(F)(F)F)cc3)c(C(C)=O)c(=O)c12 (centres unmarked) [Compound 93, 3-acetyl-5-methoxy-2-((4-(pentafluoro--sulfanyl)benzyl)sulfinyl)quinolin-4(1H)-one]
IC50 [1, 2]: > 2000 nM
IC50 [1, 3]: > 2000 nM
IC50 [1, 4]: > 2000 nM
IC50 [1, 5]: > 2000 nM
IC50 (liver cancer cell lines): > 2000 nM

SMILES: COc1cccc2[nH]c([S+]([O-])Cc3cc(C)on3)c(C(C)=O)c(=O)c12 (centres unmarked) [Compound 94, 3-acetyl-5-methoxy-2-(((5-methylisoxazol-3-yl)methyl)sulfinyl)quinolin-4(1H)-one]
IC50 [1, 2]: > 2000 nM
IC50 [1, 3]: > 2000 nM
IC50 [1, 4]: > 2000 nM
IC50 [1, 5]: > 2000 nM
IC50 (liver cancer cell lines): > 2000 nM

SMILES: CC(=O)c1c([S+]([O-])Cc2ccc(N)nc2)[nH]c2c(Br)ccc(Cl)c2c1=O (centres unmarked) [Compound 100, 3-acetyl-2-(((6-aminopyridin-3-yl)methyl)sulfinyl)-8-bromo-5-chloroquinolin-4(1H)-one]
IC50 [1, 2]: > 2000 nM
IC50 [1, 3]: > 2000 nM
IC50 [1, 4]: > 2000 nM
IC50 [1, 5]: > 2000 nM
IC50 (liver cancer cell lines): > 2000 nM

SMILES: O=C(c1c([S+]([O-])Cc2ccc(SC(F)(F)F)cc2)[nH]c2c(Br)ccc(Cl)c2c1=O)C1CC1 (centres unmarked) [Compound 101, 8-bromo-5-chloro-3-(cyclopropanecarbonyl)-2-((4-((trifluoromethyl)thio)benzyl)sulfinyl)quinolin-4(1H)-one]
IC50 [1, 3]: > 2000 nM
IC50 [1, 4]: > 2000 nM
IC50 [1, 5]: > 2000 nM
IC50 (liver cancer cell lines): > 2000 nM

SMILES: CC(=O)c1c([S+]([O-])Cc2ccc(C(F)(F)F)nc2C)[nH]c2c(Br)ccc(Cl)c2c1=O (centres unmarked) [Compound 102, 3-acetyl-8-bromo-5-chloro-2-(((2-methyl-6-(trifluoromethyl)pyridin-3-yl)methyl)sulfinyl)quinolin-4(1H)-one]
IC50 [1, 3]: > 2000 nM
IC50 [1, 4]: 1030 nM
IC50 [1, 5]: > 2000 nM
IC50 (liver cancer cell lines): > 2000 nM

SMILES: CC(=O)c1c([S+]([O-])Cc2ccc(NS(C)(=O)=O)cc2)[nH]c2c(Br)ccc(Cl)c2c1=O (centres unmarked) [Compound 103, N-(4-(((3-acetyl-8-bromo-5-chloro-4-oxo-1,4-dihydroquinolin-2-yl)sulfinyl)methyl)phenyl)methane-sulfonamide]
IC50 [1, 2]: > 2000 nM
IC50 [1, 3]: > 2000 nM
IC50 [1, 4]: > 2000 nM
IC50 [1, 5]: > 2000 nM
IC50 (liver cancer cell lines): > 2000 nM

SMILES: COCCNc1ccc(C[S+]([O-])c2[nH]c3c(Br)ccc(Cl)c3c(=O)c2C(C)=O)cn1 (centres unmarked) [Compound 105, 3-acetyl-8-bromo-5-chloro-2-(((6-((2-methoxyethyl)amino)pyridin-3-yl)methyl)sulfinyl)quinolin-4(1H)-one]
IC50 [1, 2]: > 2000 nM
IC50 [1, 3]: > 2000 nM
IC50 [1, 4]: > 2000 nM
IC50 [1, 5]: > 2000 nM
IC50 (liver cancer cell lines): > 2000 nM

SMILES: CC(=O)c1c([S+]([O-])Cc2nonc2C)[nH]c2c(Br)ccc(Cl)c2c1=O (centres unmarked) [Compound 106, 3-acetyl-8-bromo-5-chloro-2-(((4-methyl-1,2,5-oxadiazol-3-yl)methyl)sulfinyl)quinolin-4(1H)-one]
IC50 [1, 2]: > 2000 nM
IC50 [1, 3]: > 2000 nM
IC50 [1, 4]: > 2000 nM
IC50 [1, 5]: > 2000 nM
IC50 (liver cancer cell lines): > 2000 nM

SMILES: CC(=O)c1c([S+]([O-])Cc2cnc3[nH]ccc3c2)[nH]c2c(Br)ccc(Cl)c2c1=O (centres unmarked) [Compound 107, 2-(((1H-pyrrolo[2,3-b]pyridin-5-yl)methyl)sulfinyl)-3-acetyl-8-bromo-5-chloroquinolin-4(1H)-one]
IC50 ([1]; 253J cells, 72 hours, cell viability (CellTiter-Glo), read-out: IC50, 253J bladder cancer cell line): > 2000 nM
IC50 ([1]; 5637 cells, 72 hours, cell viability (CellTiter-Glo), read-out: IC50, 5637 bladder cancer cell line): > 2000 nM
IC50 ([1]; Homo sapiens, T-24, T24 cells, 72 hours, cell viability (CellTiter-Glo), read-out: IC50, T24 bladder cancer cell line): > 2000 nM
IC50 ([1]; Homo sapiens, J82 cells, 72 hours, cell viability (CellTiter-Glo), read-out: IC50, J82 bladder cancer cell line): > 2000 nM
IC50 (liver cancer cell lines): > 2000 nM

More lines, now with the values ahead:

IC50 [1, 2]: 900 nM
IC50 [1, 3]: 1680 nM
IC50 [1, 4]: 1510 nM
IC50 [1, 5]: 1620 nM
IC50 (liver cancer cell lines): 1090 nM
SMILES: CC(=O)c1c([S+]([O-])Cc2cccc(S(F)(F)(F)(F)F)c2)[nH]c2c(Br)ccc(Cl)c2c1=O (centres unmarked) [Compound 77, 3-acetyl-8-bromo-5-chloro-2-((3-(pentafluoro--sulfanyl)benzyl)sulfinyl)quinolin-4(1H)-one]

IC50 [1, 2]: > 2000 nM
IC50 [1, 3]: > 2000 nM
IC50 [1, 4]: > 2000 nM
IC50 [1, 5]: > 2000 nM
IC50 (liver cancer cell lines): > 2000 nM
SMILES: CC(=O)c1c([S+]([O-])Cc2ccc(SC(F)(F)F)cc2)[nH]c2c(Cl)ccc(Cl)c2c1=O (centres unmarked) [Compound 79, 3-acetyl-5,8-dichloro-2-((4-((trifluoromethyl)thio)benzyl)sulfinyl)quinolin-4(1H)-one]

IC50 [1, 2]: > 2000 nM
IC50 [1, 3]: > 2000 nM
IC50 [1, 4]: > 2000 nM
IC50 [1, 5]: > 2000 nM
IC50 (liver cancer cell lines): > 2000 nM
SMILES: CC(=O)c1c([S+]([O-])Cc2ccc(S(F)(F)(F)(F)F)cc2)[nH]c2c(F)ccc(F)c2c1=O (centres unmarked) [Compound 80, 3-acetyl-5,8-difluoro-2-((4-(pentafluoro--sulfanyl)benzyl)sulfinyl)quinolin-4(1H)-one]

IC50 [1, 2]: > 2000 nM
IC50 [1, 3]: > 2000 nM
IC50 [1, 4]: > 2000 nM
IC50 [1, 5]: > 2000 nM
IC50 (liver cancer cell lines): > 2000 nM
SMILES: CC(=O)c1c([S+]([O-])Cc2ccc(C(F)(F)F)o2)[nH]c2c(F)ccc(F)c2c1=O (centres unmarked) [Compound 81, 3-acetyl-5,8-difluoro-2-(((5-(trifluoromethyl)furan-2-yl)methyl)sulfinyl)quinolin-4(1H)-one]

IC50 [1, 2]: > 2000 nM
IC50 [1, 3]: > 2000 nM
IC50 [1, 4]: > 2000 nM
IC50 [1, 5]: > 2000 nM
IC50 (liver cancer cell lines): > 2000 nM
SMILES: CC(=O)c1c([S+]([O-])Cc2cc(C)on2)[nH]c2c(F)ccc(F)c2c1=O (centres unmarked) [Compound 82, 3-acetyl-5,8-difluoro-2-(((5-methylisoxazol-3-yl)methyl)sulfinyl)quinolin-4(1H)-one]

IC50 [1, 2]: > 2000 nM
IC50 [1, 3]: > 2000 nM
IC50 [1, 4]: > 2000 nM
IC50 [1, 5]: > 2000 nM
IC50 (liver cancer cell lines): > 2000 nM
SMILES: CC(C)C(=O)c1c([S+]([O-])Cc2ccc(SC(F)(F)F)cc2)[nH]c2c(F)ccc(F)c2c1=O (centres unmarked) [Compound 85, 5,8-difluoro-3-isobutyryl-2-((4-((trifluoromethyl)thio)benzyl)sulfinyl)quinolin-4(1H)-one]

IC50 [1, 2]: > 2000 nM
IC50 [1, 3]: > 2000 nM
IC50 [1, 4]: > 2000 nM
IC50 [1, 5]: > 2000 nM
IC50 (liver cancer cell lines): > 2000 nM
SMILES: O=C(c1ccccc1)c1c([S+]([O-])Cc2ccc(S(F)(F)(F)(F)F)cc2)[nH]c2c(F)ccc(F)c2c1=O (centres unmarked) [Compound 87, 3-benzoyl-5,8-difluoro-2-((4-(pentafluoro--sulfanyl)benzyl)sulfinyl)quinolin-4(1H)-one]

IC50 [1, 2]: > 2000 nM
IC50 [1, 3]: > 2000 nM
IC50 [1, 4]: > 2000 nM
IC50 [1, 5]: > 2000 nM
IC50 (liver cancer cell lines): 1720 nM
SMILES: COC(=O)c1ccc(C[S+]([O-])c2[nH]c3c(Cl)ccc(Cl)c3c(=O)c2C(C)=O)cc1 (centres unmarked) [Compound 91, methyl 4-(((3-acetyl-5,8-dichloro-4-oxo-1,4-dihydroquinolin-2-yl)sulfinyl)methyl)benzoate]

IC50 [1, 3]: > 2000 nM
IC50 [1, 4]: 1660 nM
IC50 [1, 5]: > 2000 nM
IC50 (liver cancer cell lines): 1960 nM
SMILES: Cc1cc(C[S+]([O-])c2[nH]c3c(Br)ccc(Cl)c3c(=O)c2C(=O)C2CC2)no1 (centres unmarked) [Compound 96, 8-bromo-5-chloro-3-(cyclopropanecarbonyl)-2-(((5-methylisoxazol-3-yl)methyl)sulfinyl)quinolin-4(1H)-one]

IC50 [1, 3]: 1910 nM
IC50 [1, 5]: > 2000 nM
IC50 (liver cancer cell lines): 1070 nM
SMILES: Cc1cc(C[S+]([O-])c2[nH]c3c(Cl)ccc(Cl)c3c(=O)c2C(=O)C2CC2)no1 (centres unmarked) [Compound 97, 5,8-dichloro-3-(cyclopropanecarbonyl)-2-(((5-methylisoxazol-3-yl)methyl)sulfinyl)quinolin-4(1H)-one]

IC50 [1, 3]: > 2000 nM
IC50 [1, 4]: 1320 nM
IC50 [1, 5]: > 2000 nM
IC50 (liver cancer cell lines): 1200 nM
SMILES: CC(=O)c1c([S+]([O-])Cc2ccc(C#N)s2)[nH]c2c(Br)ccc(Cl)c2c1=O (centres unmarked) [Compound 98, 5-(((3-acetyl-8-bromo-5-chloro-4-oxo-1,4-dihydroquinolin-2-yl)sulfinyl)methyl)thiophene-2-carbonitrile]

IC50 [1, 3]: > 2000 nM
IC50 [1, 4]: 1030 nM
IC50 [1, 5]: > 2000 nM
IC50 (liver cancer cell lines): 1500 nM
SMILES: CC(=O)c1c([S+]([O-])Cc2ccc(Cl)nc2)[nH]c2c(Br)ccc(Cl)c2c1=O (centres unmarked) [Compound 104, 3-acetyl-8-bromo-5-chloro-2-(((6-chloropyridin-3-yl)methyl)sulfinyl)quinolin-4(1H)-one]
